Test results from ChEMBL document CHEMBL1130694, “Selective chemical modifications of polymyxin B” (Bioorg Med Chem Lett, 1998).
Converted amounts (≈) assume the structure as drawn. Positions of bridges follow the written chain, without caps; N, C: chain ends. Non-standard residues stand in square brackets, D forms with d. Residues, ends and D or L forms follow the SMILES beside them. *: point of attachment. Heptanoyl(6-Me) = CC(C)CCCCC(=O)*; Dab = NCC[C@H](N)C(=O)O

How the values were obtained:
Mus musculus = organism: Mus musculus; assay: Compound was tested for protection against Pseudomonas infection in mice; format: functional; conditions: read-out: PD50
Pseudomonas = assay: Compound was tested for antibacterial activity against Pseudomonas organism; format: functional
Escherichia coli = assay: Compound was tested for antibacterial activity against Escherichia coli organism; format: functional
Staphylococcus = assay: Compound was tested for antibacterial activity against Staphylococcus organism; format: functional
[1] = Compound was tested for acute toxicity in mice upon intravenous administration; format: organism-based; conditions: mouse, in vivo
[2] = Ratio of LD50 to PD50 was evaluated.; format: ADME, organism-based; conditions: mouse, in vivo

Row | Structure (SMILES) | ED50 (Mus musculus) [mg/kg] | MIC (Pseudomonas) [µg/mL] | MIC (Escherichia coli) [µg/mL] | MIC (Staphylococcus) [µg/mL] | LD50 [1] [mg/kg] | selectivity ratio [2]
1 | CC(C)CCCCC(=O)N[C@@H](CCNC(=O)CN)C(=O)N[C@H](C(=O)N[C@@H](CCN)C(=O)N[C@H]1CCNC(=O)[C@H]([C@@H](C)O)NC(=O)[C@H](CCN)NC(=O)[C@H](CCN)NC(=O)[C@H](CC(C)C)NC(=O)[C@@H](Cc2ccccc2)NC(=O)[C@H](CCN)NC1=O)[C@@H](C)O [listing 1 of 2 here] | 7 | 0.033 (≈ 0.0265 µM) | 0.028 (≈ 0.0225 µM) | 8 (≈ 6.42 µM) |  | 
2 | CC(C)CCCCC(=O)N[C@@H](CCNC(=O)CN)C(=O)N[C@H](C(=O)N[C@@H](CCN)C(=O)N[C@H]1CCNC(=O)[C@H]([C@@H](C)O)NC(=O)[C@H](CCN)NC(=O)[C@H](CCN)NC(=O)[C@H](CC(C)C)NC(=O)[C@@H](Cc2ccccc2)NC(=O)[C@H](CCN)NC1=O)[C@@H](C)O [listing 2 of 2 here] |  |  |  |  | 20 | 2.8
3 | CC(C)CCCCC(=O)N[C@@H](CCN)C(=O)N[C@H](C(=O)N[C@@H](CCN)C(=O)N[C@H]1CCNC(=O)[C@H]([C@@H](C)O)NC(=O)[C@H](CCNC(=O)[C@@H](N)Cc2ccc(O)cc2)NC(=O)[C@H](CCN)NC(=O)[C@H](CC(C)C)NC(=O)[C@@H](Cc2ccccc2)NC(=O)[C@H](CCN)NC1=O)[C@@H](C)O | 2.2 | 0.073 (≈ 0.054 µM) | 0.175 (≈ 0.129 µM) | 2.2 (≈ 1.63 µM) | 19 | 8.6
4 | CC(C)CCCCC(=O)N[C@@H](CCN)C(=O)N[C@H](C(=O)N[C@@H](CCN)C(=O)N[C@H]1CCNC(=O)[C@H]([C@@H](C)O)NC(=O)[C@H](CCNC(=O)[C@@H](N)CCCN=C(N)N)NC(=O)[C@H](CCN)NC(=O)[C@H](CC(C)C)NC(=O)[C@@H](Cc2ccccc2)NC(=O)[C@H](CCN)NC1=O)[C@@H](C)O | 0.25 | 0.03 (≈ 0.0223 µM) | 0.16 (≈ 0.119 µM) | 2 (≈ 1.49 µM) | 15 | 60
5 | CCCCCCC(N)C(=O)NCC[C@@H]1NC(=O)[C@H](CCN)NC(=O)[C@H](CC(C)C)NC(=O)[C@@H](Cc2ccccc2)NC(=O)[C@H](CCN)NC(=O)[C@@H](NC(=O)[C@H](CCN)NC(=O)[C@@H](NC(=O)[C@H](CCN)NC(=O)CCCCC(C)C)[C@@H](C)O)CCNC(=O)[C@H]([C@@H](C)O)NC1=O (stereo partly specified) | 7 | 0.051 (≈ 0.0383 µM) | 0.225 (≈ 0.169 µM) | 0.561 (≈ 0.422 µM) | 12 | 1.7
6 | CC(C)CCCCC(=O)N[C@@H](CCN)C(=O)N[C@H](C(=O)N[C@@H](CCN)C(=O)N[C@H]1CCNC(=O)[C@H]([C@@H](C)O)NC(=O)[C@H](CCN)NC(=O)[C@H](CCN)NC(=O)[C@H](CC(C)C)NC(=O)[C@@H](Cc2ccccc2)NC(=O)[C@H](CCN)NC1=O)[C@@H](C)O ({Heptanoyl(6-Me)}-[Dab]T[Dab][Dab][Dab][dF]L[Dab][Dab]T; lactam 4-C) [listing 1 of 2 here] | 2 | 0.051 (≈ 0.0429 µM) | 0.026 (≈ 0.0219 µM) | 2.8 (≈ 2.35 µM) |  | 
7 | CC(C)CCCCC(=O)N[C@@H](CCN)C(=O)N[C@H](C(=O)N[C@@H](CCN)C(=O)N[C@H]1CCNC(=O)[C@H]([C@@H](C)O)NC(=O)[C@H](CCN)NC(=O)[C@H](CCN)NC(=O)[C@H](CC(C)C)NC(=O)[C@@H](Cc2ccccc2)NC(=O)[C@H](CCN)NC1=O)[C@@H](C)O ({Heptanoyl(6-Me)}-[Dab]T[Dab][Dab][Dab][dF]L[Dab][Dab]T; lactam 4-C) [listing 2 of 2 here] |  |  |  |  | 9 | 4.5
8 | CC(C)CCCCC(=O)N[C@@H](CCN)C(=O)N[C@H](C(=O)N[C@@H](CCN)C(=O)N[C@H]1CCNC(=O)[C@H]([C@@H](C)O)NC(=O)[C@H](CCNC(=O)[C@@H](N)C[C@H](CCN)C(=O)OCc2ccccc2)NC(=O)[C@H](CCN)NC(=O)[C@H](CC(C)C)NC(=O)[C@@H](Cc2ccccc2)NC(=O)[C@H](CCN)NC1=O)[C@@H](C)O | 2 | 0.087 (≈ 0.0599 µM) | 0.146 (≈ 0.101 µM) | 0.445 (≈ 0.307 µM) | 13 | 6.5
